One assay deals with HEK293 cells; N2a cells. As to the kind of experiment: Cell Rescue Assay: Protection against Thapsigargin (TG)-induced Cell-death (ALAMARBLUE). The class given is cell-based, human (HEK293); mouse (N2a). Conditions: compound 20 μM, 2 hrs before thapsigargin (15 μM for HEK293 cells and 1 μM for N2a cells), 24 hrs; cell line not given; read-out: Cell Survival %. Here is the method:
Protection against Thapsigargin (TG)-induced Cell-death. Human embryonic kidney (HEK293) cells were grown in Dulbecco's Modified Eagle's Medium (DMEM) with 10% FBS and 1% antibiotic antimycotic solution (ABAM). Mouse neuroblastoma (N2a) cells were grown in 1:1 DMEM:OPTI-MEM® with 5% FBS and 1% ABAM. All cells were grown in 10% CO2 in a humidified environment of the incubator. Cells grown in 96-well plates were exposed to a test compound (20 μM) for 2 hrs before addition of thapsigargin (15 μM for HEK293 cells and 1 μM for N2a cells) to induce ER stress. After incubation in cell-culture incubator for 24 hrs, ALAMARBLUE® regent (10% v/v) was added to the wells. Fluorescence reading was taken 2 hrs after the addition of the ALAMARBLUE® regent. Cell-viability was calculated as a percentage of relative fluorescence unit (RFU) compared to control. […] The biological results are summarized in Table 2, where each compound was tested at 20 μM and where A represents a viability greater than 50%, B represents a viability greather than 10% and less than 50%, C represents a value below 10%.

A further assay relates to CSM14.1 neuronal cells. As to the kind of experiment: Cell Survival Assay (thapsigargin-treated CSM14.1 neuronal cells, CELLTITER-GLO luminescence). The class given is cell-based. The following applies: CSM14.1 cells, about 15 μM thapsigargin, overnight (about 16 to 24 hrs), 2 hrs preincubation. How it is done:
CSM14.1 neuronal cells were maintained in Complete Medium at 32° C.; wherein the Complete Medium contained Dulbecco's modified eagle medium (DMEM) with 10% fetal bovine serum (FSB), 1% L-glutamine, 100 IU/mL penicillin, and 100 μg/mL streptomycin. […] Seeding was performed using a MultiDrop Combi reagent broadcaster. The plates were incubated overnight at 32° C. A test compound was prepared by 2-fold serial dilution in 100% DMSO using a BIOMEK® 2000 liquid handler (Beckman Coulter). A dose-response curve containing 10 concentrations of the test compound was obtained. Using a BIOMEK® FX liquid handler (Beckman Coulter), 2.5 μL of the test compound was transferred from the 100% DMSO serial dilution plate to an intermediate plate containing 47.5 μL of DMEM Assay Medium containing 2% FBS, 100 IU/mL penicillin, and 100 μg/mL streptomycin and mixed. […] The tissue culture media (4 μL) containing vehicle only was transferred manually to each control cell using a 16 channel electronic pipette. […] High luminescence indicates cell survival.

The next assay relates to Ob/ob mice. As to the kind of experiment: Effect of a SERCA Agonist on the Level of Blood Glucose in Ob/ob mice. The following applies: 50 mg/kg i.p. once a day, 5 days, fasting glucose at baseline and 4 days after administration. The class given is in vivo, mouse. Here is the method: Ob/ob mice (10 weeks old, n=7) were intraperitoneally (i.p.) injected with 100 μL of a solution containing 0 (vehicle) or 50 mg/kg of a test compound once a day for a total of 5 days. Fasting glucose was measured at baseline and 4 days after the administration of the test compound. Glucose levels were measured in blood samples drawn from the tail vein using a handheld glucose sensor. Compound effects on blood glucose are shown in Table 5 where A represents a 10-20% reduction in blood glucose, B represents a 21-30% reduction in blood glucose, and C represents a greater than 30% reduction in blood glucose levels.

For a further assay, the system named is SERCA. As to the kind of experiment: Ca-ATPase Assay (NADH-linked, enzyme-coupled ATPase assay, microsomal preparations from HEK 293 cells). The class given is biochemical, human. The following applies: pH 7.0, 5 mM ATP, relative to controls. Here is the method: A Ca-ATPase assay was performed using microsomal preparations from HEK 293 cells at a series of calcium concentrations corresponding to the physiological range, relative to controls. The ATP hydrolysis rate was measured over a range of calcium concentrations in the presence of test compounds using an NADH-linked, enzyme-coupled ATPase assay adapted for 96-well microplates, with Vmax determined by fitting the ATPase calcium-dependence to the Hill function. Each well contained 2 μg or 7 μg of SR vesicles (optimized for skeletal or cardiac SR, respectively), 50 mM MOPS (pH 7.0), 100 mM KCl, 5 mM MgCl2, 1 mM EGTA, 0.2 mM NADH, 1 mM phosphoenol pyruvate, 5 IU pyruvate kinase, 5 IU lactate dehydrogenase, and 3.5 μg/mL A23187 (a calcium ionophore). CaCl2 was added to set free [Ca^2+] to the specific values. The assay was started upon addition of ATP at a final concentration of 5 mM, and read in a SpectraMax Plus microplate spectrophotometer. The results are summarized in Table 4, where A represents an increase in SERCA Vmax greater than 50% and B represents a value greater than 10% and less than 50%.

Regarding `Cc1ccc2cccc(-c3nc(-c4ccc(Br)s4)no3)c2n1` [Compound B2, 3-(5-Bromothiophen-2-yl)-5-(2-methylquinolin-8-yl)-1,2,4-oxadiazole], the viability at 20 µM in the assay with HEK293 cells; N2a cells lay within 10 to 50%. In addition, in the assay on CSM14.1 neuronal cells, the EC50 is 1000 to 10000 nM. Moreover, the Glucose level reduction result with Ob/ob mice is reported as “B (a 21-30% reduction in blood glucose)”.

For `Cc1ccc2cccc(-c3nc(-c4ccc(OC(C)C)cc4)no3)c2n1` [Compound B1, 3-(4-Isopropoxyphenyl)-5-(2-methylquinolin-8-yl)-1,2,4-oxadiazole], in the assay on HEK293 cells; N2a cells, the viability at 20 µM was 10 to 50%. This compound returned an EC50 in the assay on CSM14.1 neuronal cells of 1000 to 10000 nM. Further, the Glucose level reduction entry with Ob/ob mice is listed as “B (a 21-30% reduction in blood glucose)”.

With `Cc1ccc2cccc(-c3nc(-c4cc(Br)cs4)no3)c2n1` [Compound B3, 3-(4-Bromothienyl-2-yl)-5-(2-methylquinolin-8-yl)-1,2,4-oxadiazole], the viability at 20 µM with HEK293 cells; N2a cells is greater than 50%. In the assay on CSM14.1 neuronal cells, this compound displayed an EC50 of 1000 to 10000 nM. Further, the Glucose level reduction entry with Ob/ob mice is “A (a 10-20% reduction in blood glucose)”.

As to `Cc1ccc2cccc(-c3nc(-c4ccc(Cl)cc4)no3)c2n1` [Compound B4, 3-(4-Chlorophenyl)-5-(2-methylquinolin-8-yl)-1,2,4-oxadiazole], in the assay with SERCA, the “SERCA Vmax Increase” value was “A (an increase in SERCA Vmax greater than 50%)”. In addition, the viability at 20 µM with HEK293 cells; N2a cells was greater than 50%. Also, in the assay with CSM14.1 neuronal cells, the EC50 is less than 1000 nM. Also, the Glucose level reduction entry in the assay with Ob/ob mice was “C (a greater than 30% reduction in blood glucose levels)”.

For the origin of these results see patent US10793558B2, “Quinoline oxadiazoles as cytoprotective agents” (priority 2015, dated 2020).
